According to patent publication US9375000B2, “Pesticidal arylpyrrolidines” (Bayer Intellectual Property GmbH, priority 2011, dated 2016):

Assays:
Assay type in all cases: in vivo
[1] = test system: Two-Spotted Spider Mite (Tetranychus urticae); test: Two-spotted spider mite (Tetranychus urticae) spray test on kidney bean; settings: after 7 days; for pest or weed control at 20 ppm: Tetranychus urticae, 168 h, read-out: acaricidal activity
Procedure, shortened: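 Kidney bean plants at the two-leaf stage carried 50-100 adult mites and were sprayed one day later with compound in DMF/polyoxyethylene alkyl phenyl ether diluted in water. Ammonium salt and penetration enhancer at 1000 ppm were added if needed. Acaricidal activity (% mites killed) was scored after 7 days in a greenhouse.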

[2] = test system: Cucurbit Leaf Beetle (Aulacophora femoralis); test: Cucurbit leaf beetle (Aulacophora femoralis) cucumber leaf dip test; settings: after 7 days; for pest or weed control at 20 ppm: Aulacophora, foliar, 168 h, read-out: insecticidal activity
Procedure, shortened: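 Cucumber leaves dipped in compound formulated with DMF and polyoxyethylene alkyl phenyl ether, diluted in water, with ammonium salt or ammonium salt plus penetration enhancer at 1000 ppm added if necessary; dried leaves placed on sterilized soil with five second-instar larvae. Kept at 25° C; larval mortality counted after 7 days.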

[3] = test system: Larvae of Spodoptera litura; test: Larvae of Spodoptera litura, method using artificial feeds; settings: artificial feed, after 7 days; for pest or weed control at 20 ppm: Spodoptera litura, 168 h, read-out: insecticidal activity (pesticidal ratio)
Procedure, shortened: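 Compound formulated in dimethylformamide with polyoxyethylene alkyl phenyl ether emulsifier, water-diluted and poured onto artificial diet. Five 3rd-instar Spodoptera litura larvae per cup, held at 25° C and 50-60% humidity. Mortality after 7 days expressed as pesticidal ratio.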

[4] = active compound concentration 20 ppm
[5] = active compound concentration 4 ppm
[6] = active compound concentration 100 ppm

Structure (SMILES)	acaricidal activity [1, 4] [%]	insecticidal activity [2, 4] [%]	insecticidal activity (pesticidal ratio) [3, 4] [%]	further results
O=C(NCc1ccc(N2CCC(c3cc(Cl)cc(Cl)c3)(C(F)(F)F)C2O)cc1C(F)(F)F)C1CC1 (centres unmarked) [A1-38]	100	100	100	
O=C(CC(F)(F)F)NCc1ccc(N2CCC(c3cc(Cl)cc(Cl)c3)(C(F)(F)F)C2O)cc1C(F)(F)F (centres unmarked) [A1-40]	100	100	100	
CSCC(=O)NCc1ccc(N2CCC(c3cc(Cl)cc(Cl)c3)(C(F)(F)F)C2O)cc1C(F)(F)F (centres unmarked) [A1-42]	100	100	100	
C[S+]([O-])CC(=O)NCc1ccc(N2CCC(c3cc(Cl)cc(Cl)c3)(C(F)(F)F)C2O)cc1C(F)(F)F (centres unmarked) [A1-43]	100	100	100	
CS(=O)(=O)CC(=O)NCc1ccc(N2CCC(c3cc(Cl)cc(Cl)c3)(C(F)(F)F)C2O)cc1C(F)(F)F (centres unmarked) [A1-44]	100	100	100	
CCC(=O)NCc1ccc(N2CCC(c3cc(Cl)c(Cl)c(Cl)c3)(C(F)(F)F)C2O)cc1C(F)(F)F (centres unmarked) [A1-46]	100	100	100	
O=C(NCc1ccc(N2CCC(c3cc(Cl)c(Cl)c(Cl)c3)(C(F)(F)F)C2O)cc1C(F)(F)F)C1CC1 (centres unmarked) [A1-49]	100	100	100	
O=C(CC(F)(F)F)NCc1ccc(N2CCC(c3cc(Cl)c(Cl)c(Cl)c3)(C(F)(F)F)C2O)cc1C(F)(F)F (centres unmarked) [A1-51]	100	100	100	
CCC(=O)NCc1ccc(N2CCC(c3cc(Cl)c(Cl)c(Cl)c3)(C(F)(F)F)C2O)cc1Br (centres unmarked) [A1-162, N-{2-bromo-4-[2-hydroxy-3-(3,4,5-trichlorophenyl)-3-(trifluoromethyl)pyrrolidin-1-yl]benzyl}propanamide]				pest or weed control at 20 ppm [1, 4]: 100%; pest or weed control at 20 ppm [2, 4]: 100%; pest or weed control at 20 ppm [3, 4]: 100%
CCC(=O)NCc1ccc(N2CCC(c3cc(F)c(F)c(F)c3)(C(F)(F)F)C2O)cc1C(F)(F)F (centres unmarked) [A1-261]	100	100	100	insecticidal activity (pesticidal ratio) [3, 5]: 100%
O=C(NCc1ccc(N2CCC(c3cc(F)c(F)c(F)c3)(C(F)(F)F)C2O)cc1C(F)(F)F)C1CC1 (centres unmarked) [A1-264]	100	100		insecticidal activity [2, 5]: 100%; insecticidal activity (pesticidal ratio) [3, 5]: 80%
CCC(=O)NCc1ccc(N2CCC(c3cc(Cl)c(F)c(Cl)c3)(C(F)(F)F)C2O)cc1C(F)(F)F (centres unmarked) [A1-272]	100	100	100	
O=C(NCc1ccc(N2CCC(c3cc(Cl)c(F)c(Cl)c3)(C(F)(F)F)C2O)cc1C(F)(F)F)C1CC1 (centres unmarked) [A1-275]	100	100	100	
CCC(=O)NCc1ccc(N2CCC(c3cc(Cl)c(F)c(Cl)c3F)(C(F)(F)F)C2O)cc1C(F)(F)F (centres unmarked) [A1-283, N-{4-[3-(3,5-dichloro-2,4-difluorophenyl)-2-hydroxy-3-(trifluoromethyl)pyrrolidin-1-yl]-2-(trifluoromethyl)benzyl}propanamide]				pest or weed control at 20 ppm [1, 4]: 100%; pest or weed control at 20 ppm [2, 4]: 100%; pest or weed control at 20 ppm [3, 4]: 100%
O=C(NCc1ccc(N2CCC(c3cc(Cl)c(F)c(Cl)c3F)(C(F)(F)F)C2O)cc1C(F)(F)F)C1CC1 (centres unmarked) [A1-286]	100	100	100	
CCC(=O)NCc1ccc(N2CCC(c3cc(Cl)cc(C(F)(F)F)c3)(C(F)(F)F)C2O)cc1C(F)(F)F (centres unmarked) [A1-338]	100	100	100	
O=C(NCc1ccc(N2CCC(c3cc(Cl)cc(C(F)(F)F)c3)(C(F)(F)F)C2O)cc1C(F)(F)F)C1CC1 (centres unmarked) [A1-341]	100	100	100	
CS(=O)(=O)CC(=O)NCc1ccc(N2CCC(c3cc(Cl)cc(C(F)(F)F)c3)(C(F)(F)F)C2O)cc1C(F)(F)F (centres unmarked) [A1-347]	100	100	100	
O=C(NCc1ccc(N2CCC(c3cc(Cl)cc(Cl)c3)(C(F)(F)F)C2O)cc1C(F)(F)F)C1CCC1 (centres unmarked) [A1-361]	100	100	100	

Structure (SMILES)	acaricidal activity [1, 4] [%]	insecticidal activity [2, 4] [%]	insecticidal activity (pesticidal ratio) [3, 4] [%]	further results
CC(=O)NCc1ccc(N2CCC(c3cc(Cl)cc(Cl)c3F)(C(F)(F)F)C2O)cc1C(F)(F)F (centres unmarked) [A1-405]				acaricidal activity [1, 5]: 100%; insecticidal activity [2, 5]: 100%; insecticidal activity (pesticidal ratio) [3, 5]: 100%
CCC(=O)NCc1ccc(N2CCC(c3cc(Cl)cc(Cl)c3F)(C(F)(F)F)C2O)cc1C(F)(F)F (centres unmarked) [A1-406]				acaricidal activity [1, 5]: 100%; insecticidal activity [2, 5]: 100%; insecticidal activity (pesticidal ratio) [3, 5]: 100%
CC(=O)NCc1ccc(N2CCC(c3cc(Cl)c(F)c(Cl)c3F)(C(F)(F)F)C2O)cc1Br (centres unmarked) [A1-429]	100			insecticidal activity [2, 5]: 100%; insecticidal activity (pesticidal ratio) [3, 5]: 100%
CCC(=O)NCc1ccc(N2CCC(c3cc(Cl)c(F)c(Cl)c3F)(C(F)(F)F)C2O)cc1Br (centres unmarked) [A1-430]	100			insecticidal activity [2, 5]: 100%; insecticidal activity (pesticidal ratio) [3, 5]: 100%
CCC(=O)NCc1cc(F)c(N2CCC(c3cc(Cl)c(Cl)c(Cl)c3)(C(F)(F)F)C2O)cc1F (centres unmarked) [A1-454]	100	100	100	
N#CCC(=O)NCc1ccc(N2CCC(c3cc(C(F)(F)F)cc(C(F)(F)F)c3)(C(F)(F)F)C2O)cc1C(F)(F)F (centres unmarked) [A1-528]				acaricidal activity [1, 5]: 98%; insecticidal activity [2, 5]: 100%; insecticidal activity (pesticidal ratio) [3, 5]: 100%
CC(C)(C)OC(=O)NCc1ccc(N2CCC(c3cc(Cl)c(Cl)c(Cl)c3)(C(F)(F)F)C2O)cc1 (centres unmarked) [A1-575]				acaricidal activity [1, 6]: 98%; insecticidal activity [2, 6]: 100%; insecticidal activity (pesticidal ratio) [3, 6]: 80%
CC(=O)NCc1ccc(N2CCC(c3cc(Cl)cc(Cl)c3)(C(F)(F)F)C2O)nc1C(F)(F)F (centres unmarked) [A3-1]	100	100	100	
O=C(NCc1ccc(N2CCC(c3cc(Cl)cc(Cl)c3)(C(F)(F)F)C2O)nc1C(F)(F)F)C1CC1 (centres unmarked) [A3-5]	100	100	100	
O=C(CC(F)(F)F)NCc1ccc(N2CCC(c3cc(Cl)cc(Cl)c3)(C(F)(F)F)C2O)nc1C(F)(F)F (centres unmarked) [A3-7]	100	100	100	
CC(=O)NCc1ccc(N2CCC(c3cc(Cl)c(Cl)c(Cl)c3)(C(F)(F)F)C2O)nc1C(F)(F)F (centres unmarked) [A3-12]	100	100	100	
COCCC(=O)NCc1ccc(N2CCC(c3cc(Cl)c(Cl)c(Cl)c3)(C(F)(F)F)C2O)nc1C(F)(F)F (centres unmarked) [A3-19]	100	100	100	acaricidal activity [1, 5]: 100%; insecticidal activity [2, 5]: 100%; insecticidal activity (pesticidal ratio) [3, 5]: 100%
CS(=O)(=O)CC(=O)NCc1ccc(N2CCC(c3cc(Cl)c(Cl)c(Cl)c3)(C(F)(F)F)C2O)nc1C(F)(F)F (centres unmarked) [A3-22]	100	100	100	
CC(=O)NCc1ccc(N2CCC(c3cc(C(F)(F)F)cc(C(F)(F)F)c3)(C(F)(F)F)C2O)nc1C(F)(F)F (centres unmarked) [A3-23]	100	100	100	
CCC(=O)NCc1ccc(N2CCC(c3cc(C(F)(F)F)cc(C(F)(F)F)c3)(C(F)(F)F)C2O)nc1C(F)(F)F (centres unmarked) [A3-24]	100	100	100	
O=C(CC1CC1)NCc1ccc(N2CCC(c3cc(C(F)(F)F)cc(C(F)(F)F)c3)(C(F)(F)F)C2O)nc1C(F)(F)F (centres unmarked) [A3-28]	100	100	100	
O=C(CC(F)(F)F)NCc1ccc(N2CCC(c3cc(C(F)(F)F)cc(C(F)(F)F)c3)(C(F)(F)F)C2O)nc1C(F)(F)F (centres unmarked) [A3-29]	100	100	100	
CS(=O)(=O)CC(=O)NCc1ccc(N2CCC(c3cc(C(F)(F)F)cc(C(F)(F)F)c3)(C(F)(F)F)C2O)nc1C(F)(F)F (centres unmarked) [A3-33]	100	100	100	
Cc1nc(N2CCC(c3cc(Cl)c(Cl)c(Cl)c3)(C(F)(F)F)C2O)ccc1CNC(=O)C1CC1 (centres unmarked) [A3-82]	100	100	100	
